How the values were obtained:
H157 = test: MTT cell viability, H157; type: cell-based; conditions: Homo sapiens, NCI-H157, 96 h; Squamous lung cell line H157; 4 days incubation
Method: (§1) The ability of the flurbiprofen analog compounds of the invention to inhibit cancer cell growth and survival (viability) in a variety of cancer lines was examined in a standard MTT assay for cell viability, as detailed in Example 2.
(§2) The studies reported in Tables 1-3 above were carried out by incubating the cells in the test compound for four days, under standard cell-culture conditions, and measuring cell survival on day 5 (see Example 2).
(§3) Cell growth and survival following treatment with N—[(S)-2-Fluoro-α-methyl-4-biphenylacetyl]-[L-(4-phenylphenyl)alanine]-N-(2,2,6,6-tetramethyl-4-piperidinyl)amide (GCBH-110=B1031; (S)-Fmba-L-Bip-Atmp) were measured by a rapid colorimetric assay based on the tetrazolium salt MTT (3-(4,5-dimethylthiazol-2-yl)-2,5-diphenyl tetrazolium bromide) (Mosmann, J. Immunol. Methods 65: 55-63, 1983, with minor modifications).
(§4) Briefly, approximately 1,000-5,000 cancer cells from 15 different cancer cells lines were plated in 100 μL of growth medium in 96-well flat-bottomed microtiter plates. Cells were incubated overnight to allow recovery. Compounds to be tested were added to the cells in triplicate in a range of concentrations and the cells were incubated at 37° C., 5% CO2, with 100% humidity. Control cells were treated in the same way without antagonists. […] Absorbance was immediately determined using a scanning multiwell plate reader.

H290 = test: MTT cell viability, H290; type: cell-based; conditions: NCI-H290, 96 h; Mesothelioma lung cell line H290; 4 days incubation
Method: as §1, §2, §3, §4

CaLu6 = test: MTT cell viability, CaLu6; type: cell-based; conditions: Homo sapiens, Calu-6, 96 h; Adenocarcinoma lung cell line CaLu6; 4 days incubation
Method: as §1, §2, §3, §4

H520 = test: MTT cell viability, H520; type: cell-based; conditions: Homo sapiens, NCI-H520, 96 h; Squamous lung cell line H520; 4 days incubation
Method: as §1, §2, §3, §4

[1] = test system: H2122 lung carcinoma solid tumor xenograft; test: H2122 lung carcinoma xenograft in nude mice; type: in vivo, athymic nude mice; conditions: 5 mg/kg daily intraperitoneal, from day 7 after implantation, over the 25 days of treatment, FIG. 11
Method: The efficacy of the treatment method was examined for both lung carcinoma-cell tumors and pancreatic-cell tumors implanted in athymic mice, according to the method detailed in Example 3. In the first study, mice injected with lung-carcinoma cells were treated, seven days after cancer-cell implantation, by daily injection of 5 mg/kg body weight of one of three different flurbiprofen analog compounds: B1005 (GCBH 104); B1020 (GCBH 108) and B1031 (GCBH 110). Tumor size was measured by calipers at the days indicated in FIG. 11, with final tumor weight and volume being determined by extracting the tumor from the sacrificed animals.
Compounds having high in vitro cytotoxic activity were tested against implanted tumors in vivo. In one study, athymic nude mice were implanted subcutaneously with suspensions of approximately 2 million H2122 lung carcinoma cells, in Matrigel suspension. On the seventh day after tumor implantation, groups of 5 mice bearing implants were injected intraperitoneally with the compounds being tested at 5 mg/kg/every day; control animals were injected with an equal volume of isotonic saline. […] Tumor size was measured with a caliper three times per week. Tumor volume was calculated by the formula: Volume (cc)=3.14×(length)×(width)^2/6
At autopsy, tumors were removed and weighed. Tumor inhibition was calculated on both weight and measurement basis.

H2122 cells = test: Cell cycle phase distribution in H2122 cells; type: cell-based; conditions: six concentrations, 24, 48 and 72 hours, FIG. 10
Method: FIG. 10 is a plot showing the percentages of H122 cells G1, S, and G2 cycle at […], and 72 hours, as a function of B1031 concentration in the cell medium.
FIG. 10 provides an explanation of the time-dependent IC50 values observed in FIG. 7, and insight into the mechanism by which the compounds of the invention exert their anti-cancer effect. In the study shown in FIG. 10, H2122 cells were cultured in the presence of one of the six concentrations of the B1031 compound, as indicated in the figure. At time periods 24, 48, and 72 hours after incubation with the compound, cells from each of the six cultures (having increasing concentrations of the compound), were examined for percent cells in G1, S, or G2 cell phase.

[2] = test system: 15 different cancer cells lines; test: MTT cell viability, 15 different cancer cell lines (FIG. 1); type: cell-based; conditions: 96 h, several cancer cell lines, 4 days, read-out: concentrations causing 50% cell death
Method: as §3
Briefly, approximately 1,000-5,000 cancer cells from 15 different cancer cells lines were plated in 100 μL of growth medium in 96-well flat-bottomed microtiter plates. Cells were incubated overnight to allow recovery. Compounds to be tested were added to the cells in triplicate in a range of concentrations and the cells were incubated at 37° C., 5% CO2, with 100% humidity. Control cells were treated in the same way without antagonists. […] Plates were incubated for 4 days, allowing sufficient time for cell replication and compound-induced cell death to occur. On day 5, 25 μL of a 2 mg/mL solution of MTT (Sigma) dissolved in RMPI-1640 was added to each well. The plate was incubated for 4 h at 37° C. The supernatant liquid was removed and the blue formazan complex was dissolved by adding 100 μL of 0.02 N HCl in 75% isopropanol to all wells. Absorbance was immediately determined using a scanning multiwell plate reader.

HADF-2 = test: MTT cell viability, HADF-2; type: cell-based; conditions: Pancreatic cancer cell, 96 h; Pancreatic cancer cells HADF-2; 4 days incubation
From the text: as §1
(§5) Similar results were obtained for the effect of the B1031 compound on the 14 pancreatic tumor cells lines shown in Table 3 below, where the dose dependent effect of the compound on survival of the pancreatic cancer cell lines is shown in FIG. 5.
as §2, §3
(§6) Briefly, approximately 1,000-5,000 cancer cells from 15 different cancer cells lines were plated in 100 μL of growth medium in 96-well flat-bottomed microtiter plates. Cells were incubated overnight to allow recovery. […] Absorbance was immediately determined using a scanning multiwell plate reader.

SW1990 = test: MTT cell viability, SW1990; type: cell-based; conditions: Homo sapiens, 96 h; Pancreatic cancer cells SW1990; 4 days incubation
From the text: as §1, §5, §2, §3, §6

Panc-813 = test: MTT cell viability, Panc-813; type: cell-based; conditions: Pancreatic cancer cell, 96 h; Pancreatic cancer cells Panc-813; 4 days incubation
From the text: as §1, §5, §2, §3, §6

H322C1 = test: MTT cell viability, H322C1; type: cell-based; conditions: 96 h; Adenocarcinoma lung cell line H322C1; 4 days incubation
Method: as §1, §2, §3, §4

H1703 = test: MTT cell viability, H1703; type: cell-based; conditions: Homo sapiens, NCI-H1703, 96 h; Adenosquamous lung cell line H1703; 4 days incubation
Method: as §1, §2, §3, §4

H3225a = test: MTT cell viability, H3225a; type: cell-based; conditions: 96 h; Adenocarcinoma lung cell line H3225a; 4 days incubation
Method: as §1, §2, §3, §4

In the case of C[C@H](C(=O)N[C@@H](Cc1ccc(-c2ccccc2)cc1)C(=O)NC1CC(C)(C)NC(C)(C)C1)c1ccc(-c2ccccc2)c(F)c1 [GCBH-110, N—[(S)-2-Fluoro-α-methyl-4-biphenylacetyl]-[L-(4-phenylphenyl)alanine]-N-(2,2,6,6-tetramethyl-4-piperidinyl)amide], the IC50 (H157) is reported as 210 nM, the IC50 (H290) is reported as 1300 nM and the IC50 (CaLu6) is reported as 340 nM. The IC50 (H520) was 250 nM, the “inhibition of growth of the lung carcinoma cell line H2122 tumor” value [1] was 76% and the “percent cells in G1, S, or G2 cell phase” value (H2122 cells) was “marked shift of the cell populations away from the S and G2 phases to the G1 phase”. It also gave an IC50 [2] of 100 to 1000 nM, an IC50 (HADF-2) of 700 nM and an IC50 (SW1990) of 1500 nM. For the same compound, the IC50 (Panc-813) was 3100 nM, the IC50 (H322C1) was 130 nM and the IC50 (H1703) was 360 nM. The IC50 (H3225a) was 450 nM.

Source: patent publication US8575170B2, “Flurbiprofen analogs and methods of use in treating cancer” (The Regents of the Unversity of Colorado, a body corporate, priority 2010, dated 2013)
